# “Also recorded” adds a separate entry of the source.
# What was measured:
# Format in all cases: in vivo, mouse
# [1] = test system: FKRP-P448L mutant dystrophic mice; test: Muscle histology (H&E staining) in FKRP P448L mutant mice; details: for fibrotic streaks in cardiac muscle / histology (H&E) / inflammation, degeneration and fibrotic tissue in skeletal muscle: 1 year of treatment, 5 day a week; for inflammation, degeneration and fibrotic tissue in muscle / muscle pathology (H&E): 6 month treatment, 5 days a week, 10 mg/kg, vs saline
# Protocol: FIG. 1. […] C57 normal mouse muscles were used as controls. Saline, mice treated with saline as negative control. […] Hematoxylin and eosin (H&E) staining was used.
# FIG. 4. […] H&E staining was used. The therapeutic effect is best seen with 10 mg/kg tamoxifen treatment. […] C57 normal mouse muscles were used as controls. P448-Saline, mice treated with saline as negative control.
# (§1) This invention applies tamoxifen and raloxifene for clinical use in FKRP mutant dystrophic mouse models for the treatment of dystroglycanopathies, specifically those caused by mutations in the FKRP gene. Mutations in the FKRP gene cause muscular dystrophy with the lack of functional glycosylation of alpha-dystroglycan (α-DG) as the characteristic biochemical marker in the diseased tissues. Mouse models with the FKRP mutations present in patients show the same biochemical feature as patients' tissues, most prominently in muscles (Chan Y M, Hum Mol Genet 2010, 19(20): 3995-4006; Blaeser A, Hum Genet 2013, 132(8): 923-934). […] Histologically, the diseased muscles undergo continuous degeneration as indicated by the presence of degenerating muscle fibers, variation in fiber size, presence of centrally nucleated fibers (a result of regeneration which is the consequence of muscle damage), inflammatory cells and an increase in non-muscle fiber connective tissues (FIG. 1). […] The best results were obtained with 5-10 mg/kg tamoxifen and 50 mg/kg raloxifene, which would be equivalent to human equivalent dose (HED) of about 0.5 mg/kg for tamoxifen and 5 mg/kg for raloxifene. […] The improvement in muscle function and pathology is even greater after 1 year treatment.
# [2] = test system: glycosylated alpha-dystroglycan (α-DG); test: Immunohistochemistry with monoclonal antibody IIH6 on muscles of treated FKRP mutant mice
# Excerpt: FIG. 2. […] C57 normal mouse muscles were used as controls. Saline, mice treated with saline as negative control. The positive staining is seen surrounding the fiber membrane and a few revertant fibers are observed in the saline treated controls.
# as §1
# [3] = test system: FKRP-P448L mutant dystrophic mice; test: Grip force measurement in FKRP P448L mutant mice
# Excerpt: FIG. 3. […] C57 normal mice muscles as controls. Saline, mice treated with saline as negative control.
# FIG. 5. […] Saline treated control, column 1; C57 normal control, column 8).
# (§2) This invention applies tamoxifen and raloxifene for clinical use in FKRP mutant dystrophic mouse models for the treatment of dystroglycanopathies, specifically those caused by mutations in the FKRP gene. Mutations in the FKRP gene cause muscular dystrophy with the lack of functional glycosylation of alpha-dystroglycan (α-DG) as the characteristic biochemical marker in the diseased tissues. Mouse models with the FKRP mutations present in patients show the same biochemical feature as patients' tissues, most prominently in muscles (Chan Y M, Hum Mol Genet 2010, 19(20): 3995-4006; Blaeser A, Hum Genet 2013, 132(8): 923-934). […] Histologically, the diseased muscles undergo continuous degeneration as indicated by the presence of degenerating muscle fibers, variation in fiber size, presence of centrally nucleated fibers (a result of regeneration which is the consequence of muscle damage), inflammatory cells and an increase in non-muscle fiber connective tissues (FIG. 1). […] The best results were obtained with 5-10 mg/kg tamoxifen and 50 mg/kg raloxifene, which would be equivalent to human equivalent dose (HED) of about 0.5 mg/kg for tamoxifen and 5 mg/kg for raloxifene.
# [4] = test system: FKRP-P448L mutant dystrophic mice; test: Treadmill exercise in FKRP P448L mutant mice; details: 1 year treatment, vs saline-treated cohort
# Excerpt: FIG. 6. […] Saline treated control, column 1; C57 normal control, column 8).
# as §2
# [5] = test system: FKRP-P448L mutant dystrophic mice; test: Overall therapeutic effect (muscle pathology and function) on feeding FKRP-P448L mutant mice; details: for dose giving the best results / muscle pathology and function: feeding 5 days a week; for dose relation of the therapeutic effects: tamoxifen 2, 5, 10, 50 mg/kg/day, raloxifene 10, 50, 100 mg/kg/day
# Excerpt: as §1
# [6] = 6 months of treatment, 5 days a week, 10 mg/kg; vs saline
# [7] = 50 mg/kg/day, 1 year treatment; vs saline-treated cohort
# [8] = 2 mg/kg/day, 1 year treatment; vs saline-treated cohort
structure (smiles),measurement,setting,value
O=C(c1ccc(OCCN2CCCCC2)cc1)c1c(-c2ccc(O)cc2)sc2cc(O)ccc12 [raloxifene],fibrotic streaks in cardiac muscle,[1]; 50 mg/kg/day,Reduced fibrotic streaks
same,histology (H&E),[1]; 50 mg/kg/day,Improvement in histology
same,"inflammation, degeneration and fibrotic tissue in skeletal muscle",[1]; 50 mg/kg/day,Reduction
same,"inflammation, degeneration and fibrotic tissue in muscle",[1],Reduction
same,muscle pathology (H&E),[1],significantly improve muscle pathology
same,levels of glycosylated alpha-dystroglycan (α-DG) detected with IIH6,[2]; [6],enhance the levels of glycosylated alpha-dystroglycan
same,number of IIH6 positive fibers,[2]; [6],clearly increased
same,grip force measurement,[3]; [7],Significant improvement
same,grip force measurement,"[3]; 100 mg/kg/day, 1 year treatment; vs saline-treated cohort",Significant improvement
same,muscle function by grip force measurement,[3]; [6],improve muscle function
same,treadmill running distance,[4]; 50 mg/kg/day,Significant improvement
same,treadmill running time,[4]; 50 mg/kg/day,Significant improvement
same,treadmill running distance,[4]; 100 mg/kg/day,Significant improvement
same,treadmill running time,[4]; 100 mg/kg/day,Significant improvement
same,dose giving the best results,[5],50 mg/kg
same,muscle pathology and function,[5],significantly improved muscle pathology and function
same,dose relation of the therapeutic effects,[5],dose-related with increasing efficacy
CC/C(=C(\c1ccccc1)c1ccc(OCCN(C)C)cc1)c1ccccc1 [tamoxifen],fibrotic streaks in cardiac muscle,[1]; 10 mg/kg/day,Reduced fibrotic streaks
same,histology (H&E),[1]; 10 mg/kg/day,Improvement in histology
same,"inflammation, degeneration and fibrotic tissue in skeletal muscle",[1]; 10 mg/kg/day,Reduction
same,"inflammation, degeneration and fibrotic tissue in muscle",[1],Reduction
same,muscle pathology (H&E),[1],significantly improve muscle pathology
same,levels of glycosylated alpha-dystroglycan (α-DG) detected with IIH6,"[2]; 6 months of treatment, 5 days a week, 10 mg/kg, vs saline",enhance the levels of glycosylated alpha-dystroglycan; also recorded: enhanced expression of alpha-DG
same,number of IIH6 positive fibers,[2]; [6],clearly increased
same,grip force measurement (other than hindlimb),[3]; [8],Significant improvement
same,"grip force measurement, hindlimb",[3]; [8],did not reach significance
same,grip force measurement,"[3]; 10 mg/kg/day, 1 year treatment; vs saline-treated cohort",Significant improvement
same,grip force measurement,[3]; [7],Significant improvement
same,muscle function by grip force measurement,"[3]; 6 months of treatment, 5 days a week, 10 mg/kg; vs saline; 10 mg/kg",improved muscle function
same,treadmill running distance,[4]; 2 mg/kg/day,Significant improvement
same,treadmill running time,[4]; 2 mg/kg/day,did not reach significance
same,treadmill running distance,[4]; 10 mg/kg/day,Significant improvement
same,treadmill running time,[4]; 10 mg/kg/day,Significant improvement
same,treadmill running distance,[4]; 50 mg/kg/day,Significant improvement
same,treadmill running time,[4]; 50 mg/kg/day,Significant improvement
same,dose giving the best results,[5],5 to 10 mg/kg
same,muscle pathology and function,[5],significantly improved muscle pathology and function
same,dose relation of the therapeutic effects,[5],dose-related with increasing efficacy
